According to US20210353595A1, “USE OF MELATONIN IN PREPARATION OF MEDICAMENT FOR INHIBITING AND/OR KILLING BACTERIUM” (priority 2020, published 2021):
≈ marks a conversion by molar mass, not a printed value. Entries after “also recorded” stand apart in the source; their conditions may differ.

What was measured:
Pasteurella multocida = experiment: Prevention and treatment of Pasteurella multocida infection in mice; assay type: in vivo, C57BL/6 mice
Method: C57 mice purchased from the Third Military Medical University were randomly divided into four groups (10 mice in each group): a group of Pasteurella multocida+solvent control, a group of Pasteurella multocida+MT (30 mg/kg), a group of Pasteurella multocida+MT (60 mg/kg), and a group of Pasteurella multocida+MT (120 mg/kg). Before Pasteurella multocida infection, MT was injected intraperitoneally to the experimental group (injection once in the morning) for consecutive 7 days (P) or 6 days (P-1), while the control mice received the equal amount of DMSO. Thereafter, mice were infected by intraperitoneal injection of suspension of Pasteurella multocida ([…]). The survival rate of mice within 7 days was monitored and recorded. Blood samples were collected from mice, and the serum was stored at −20° C. for later ELISA test. Lung samples were collected and homogenized aseptically, and then the bacterial load was quantified by serial dilution, plate inoculation and CFU counting.
Mice were randomly divided into four groups (10 mice in each group) as described in #1, described above. In the experimental group, after infection with 2.2×10^5 CFU of Pasteurella multocida through intraperitoneal injection, MT was injected intraperitoneally for four times, with the first injection 30 minutes after Pasteurella multocida infection, then the injection was performed once every 6 hours, for three times in total. Control mice were given an equal amount of DMSO at the same four time points. Subsequently, the survival rate of mice within 7 days was recorded. At the same time, mice were euthanized at 12 h, 16 h, 24 h and 32 h after infection to collect tissue and serum samples for later ELISA and bacterial count analysis.
In order to measure the colonization of mouse lung bacteria before and after melatonin treatment, the lung tissues of mice were collected 24 hours and 32 hours after infection. The tissues were homogenized under aseptic conditions, and the bacterial content was determined by continuous dilution of 10 times in saline. […]

[1] = system: gram-negative bacteria and gram-positive bacteria; experiment: MIC/MBC test, summary over all tested bacteria; assay type: cell-based; details: range over all gram-negative and gram-positive bacteria of Table 1
Method: 1 mL of a fresh suspension of bacteria (1×10^9 CFU) at the logarithmic growth stage was added into 100 mL containing different concentrations (50 mg/mL, 25 mg/mL, 12.5 mg/mL, 6.25 mg/mL, 3.125 mg/mL, 1.5625 mg/mL, 0.78125 mg/mL, 0.390625 mg/mL) of melatonin. A melatonin (MT)-free solution diluted with DMSO was used as a control group. The samples were shaken at 37° C. and a rotation speed of 120 r/min with protection from light for 12 hours, and then subjected to detection of the minimal inhibitory concentration (MIC) of MT on bacteria. Then, 0.1 mL of the aforementioned transparent bacterial solution was pipetted onto a sterilized agar plate of a specific culture medium and coated evenly, incubated in an incubator at 37° C. for 24 hours, and then subjected to detection of the minimum bactericidal concentration (MBC) of MT on pathogens, wherein the minimum concentration of MT at which no bacterium grew was the MBC of MT on pathogens. Each experiment was carried out for 3 times, and each group was set in triplicate.

[2] = target: T1, citrate synthase in lung epithelial cells (Mus musculus, UniProt Q9CZU6); experiment: Citrate synthase enzyme activity in lung epithelial cells; assay type: cell-based; details: melatonin up to 40 mg/mL; 1MOI Pasteurella multocida, 12 h; FIG. 26
T1 construct: lysed by ultrasound at a low temperature, and then the enzyme activity of citrate synthase was analyzed; endogenous in cells; host or cells: mouse lung epithelial cells
T1 sequence (Q9CZU6 28-464): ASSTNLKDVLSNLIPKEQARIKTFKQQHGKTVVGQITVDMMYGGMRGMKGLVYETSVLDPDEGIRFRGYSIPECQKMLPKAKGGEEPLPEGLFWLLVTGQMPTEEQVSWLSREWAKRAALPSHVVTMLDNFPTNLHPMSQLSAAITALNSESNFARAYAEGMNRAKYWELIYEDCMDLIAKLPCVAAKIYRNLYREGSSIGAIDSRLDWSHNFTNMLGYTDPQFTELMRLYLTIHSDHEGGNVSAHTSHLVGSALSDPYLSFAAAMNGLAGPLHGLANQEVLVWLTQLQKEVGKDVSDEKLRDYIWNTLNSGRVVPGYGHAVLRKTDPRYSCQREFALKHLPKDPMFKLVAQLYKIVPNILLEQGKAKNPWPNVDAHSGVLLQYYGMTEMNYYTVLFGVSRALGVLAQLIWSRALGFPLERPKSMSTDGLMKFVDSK
Method: 2×10^5 mouse lung epithelial cells per well were inoculated into a 48-well microplate, and cultured in a 5% CO2 incubator at 37° C. until full confluence of the cells. The non-adherent cells were washed away with 1×PBS, and the cells were treated with melatonin with the final concentrations of 1, 2, 3, 10, 20 and 40 mg/ml, while the control group was treated with the same volume of DMSO. After melatonin treatment for 30 min, 1MOI Pasteurella multocida was added into the culture medium for continue culture. After 12 h, the bacterial cells were collected, lysed by ultrasound at a low temperature, and then the enzyme activity of citrate synthase was analyzed. For specific test steps, please refer to the kit for detecting the enzyme activity of the citrate synthase. Each experiment was repeated three times, and each group was set in hexaplicate.

[3] = system: citrate synthase of Pasteurella multocida; experiment: Citrate synthase activity of bacteria after treatment; assay type: cell-based; details: MT 1, 2, 3 mg/mL, 12 h; FIG. 15
Method: Based on the discovery of metabolomics, the enzyme activity of citrate synthase after melatonin treatment was studied. 1 mL of Pasteurella multocida (1×10^9 CFU) at the logarithmic growth stage was added into 100 mL of fresh and sterile Martin broth medium containing different concentrations (1 mg/mL, 2 mg/mL, and 3 mg/mL) of MT. Melatonin-free DMSO was used as a solvent control group, and the bacterial cells were cultured in a constant-temperature shaker at 37° C. and 220 rpm for 12 h. Thereafter, 1 mL of the bacterial solution was centrifuged at 3000 r/min for 10 minutes, and the supernatant and precipitated cells were collected, respectively. The citrate synthase activity was determined using a determination kit according to the protocol of the instructions. Each experiment was repeated for three times, and each group was set in triplicate. Further, 1 mL of Pasteurella multocida (1×10^9 CFU) at the logarithmic growth stage was added into 100 mL of fresh and sterile Martin broth medium containing different concentrations of melatonin and citric acid (MT-1 mg/mL, MT-2 mg/mL, MT-3 mg/mL, CA-1 mg/mL, CA-2 mg/mL, CA-3 mg/mL, MT-1 mg/mL-CA-1 mg/mL, MT-2 mg/mL-CA-2 mg/mL, MT-3 mg/mL-CA-3 mg/mL). […] The citrate synthase activity was determined using a determination kit according to the protocol of the instructions. […]

Q: How did the “bacterial colonization in the lung tissues of mice” value (Pasteurella multocida; 24 hours and 32 hours after infection, prevention and treatment groups vs DMSO group) turn out when `COc1ccc2[nH]cc(CCNC(C)=O)c2c1` [melatonin, N-acetyl-5-methoxytryptamine] was run?
A: significantly reduced

Q: And the “decrease of bacterial colonization amount (CFU/g)” value (Pasteurella multocida; dose of 120 mg/kg, lung tissues)?
A: about 2 log 10

Q: What about the “survival rates of mice” value (Pasteurella multocida; prevention and treatment groups vs DMSO group, intraperitoneal, FIGS. 29-34) of the same compound?
A: significantly improved

Q: And the MBC [1]?
A: 3.12 to 50 mg/mL (≈ 13.5 to 215 mM)

Q: What about the MIC [1] of the same compound?
A: 1.56 to 50 mg/mL (≈ 6.73 to 215 mM)

Q: And the “enzyme activity of citrate synthase in lung epithelial cells” value [2]?
A: did not affect

Q: What about the “activity of citrate synthase in the bacteria and the culture medium” value [3] of the same compound?
A: significantly reduced; also recorded: significantly inhibiting
